One test concerns B16-F10 murine melanoma. Kind of test: in vitro cytotoxicity against B16-F10 murine melanoma (neutral red, 540 nm). The test is classed as cell-based. Conditions: Mus musculus, 72 hours incubation. Here is the method: (§1) In vitro cytotoxicity of compounds of the present invention was evaluated against B16-F10 murine melanoma and Moser human colon carcinoma cell lines. Exponentially growing B16-F10 and Moser cells were harvested, counted and suspended in the culture medium at the concentrations of 1.5×10^4 and 3×10^4 cells/ml, respectively. Twenty-four hours after planting cell suspension (180 mcl) into wells of a 96-well microtiter plate, test materials (20 mcl) were added to the wells and the plates were incubated for 72 hours. The cytotoxic activities against the tumor cells were colorimetrically determined at 540 nm after staining viable cells with neutral red solution.

Another test concerns P388 leukemia. The experiment in a line: in vivo antitumor activity against murine transplantable P388 leukemia. Details: species or system murine (female CDF1 mice). The protocol: Representative compounds of the present invention were evaluated for antitumor activity against murine transplantable P388 leukemia. Female CDF1 mice were inoculated intraperitoneally with 0.4 ml of diluted ascitic fluid containing 10^6 lymphocytic leukemia P388 cells. […] The percent increase of median survival time (MST) of treated animals over that of untreated control animals was determined and reported as % T/C. Compounds showing % T/C values of 125 or greater are considered to have significant antitumor activity. Table I presents the results of the in vivo evaluation; only the maximum % T/C and the dose giving the maximum effects are reported.

For test [1], the system named is Moser human colon carcinoma. The experiment in a line: in vitro cytotoxicity against Moser human colon carcinoma (neutral red, 540 nm). The test is classed as cell-based. The conditions noted are these: 72 hours incubation. Here is the method: as §1
The mark [2] stands for this setting: 120 mg/kg/day, i.p. single dose on day 1, CDF1 mice.
Where [3] appears, read: Mus musculus, P388, ip, 1200 h, read-out: % T/C MST.
Where [4] appears, read: Mus musculus, P388, ip, 1200 h, 30 mg/kg/day, i.p. single dose on day 1, maximum % T/C at dose giving maximum effect, CDF1 mice, 50 days, read-out: % T/C MST.
[5] abbreviates: Mus musculus, P388, ip, 1200 h, 120 mg/kg/day, i.p. single dose on day 1, maximum % T/C at dose giving maximum effect, CDF1 mice, 50 days, read-out: % T/C MST.

Structures are written as SMILES. ≈ marks a conversion by molar mass, not a printed value. Like-named read-outs stand apart in the source and are kept apart here.

With `COc1cc([C@@H]2c3cc4c(cc3[C@@H](O[C@@H]3O[C@@H]5CO[C@@H](C)O[C@H]5[C@H](O)[C@H]3O)[C@H]3COC(=O)[C@H]23)OCO4)cc(OC)c1O` [Etoposide, etoposide], inhibition with B16-F10 murine melanoma was half-maximal at 0.45 µg/mL (≈ 0.765 µM) (IC50). Besides, in the test on P388 leukemia (setting [2]), the “Number of survivors/tested on day 50” value is 6/12. Further, in the test on P388 leukemia (setting [3]), the response vs control in vivo at 30 mg/kg was found to be 182% and the response vs control in vivo at 120 mg/kg is above 390%.

With `COc1cc([C@@H]2c3cc4c(cc3[C@@H](O[C@@H]3O[C@@H]5CO[C@@H](C)O[C@H]5[C@H](O)[C@H]3OC(C)=O)[C@H]3COC(=O)[C@H]23)OCO4)cc(OC)c1O` [Example 3, 2"-0-acetyl etoposide], the IC50 stood at 1.6 µg/mL (≈ 2.54 µM) in the test with B16-F10 murine melanoma and 1.1 µg/mL (≈ 1.74 µM) in test [1]. In addition, in the test on P388 leukemia (setting [4]), the response vs control in vivo at 30 mg/kg was 240%.

The molecule `COc1cc([C@@H]2c3cc4c(cc3[C@@H](O[C@@H]3O[C@@H]5CO[C@@H](C)O[C@H]5[C@H](OC(=O)c5ccccc5)[C@H]3OC(=O)c3ccccc3)[C@H]3COC(=O)[C@H]23)OCO4)cc(OC)c1O` [Example 10, 2",3"-0-di-benzoyletoposide] displayed an IC50 with B16-F10 murine melanoma of 4.4 µg/mL (≈ 5.52 µM). Further, the response vs control in vivo at 120 mg/kg with P388 leukemia (setting [5]) turned out to be 125%.

As to `COc1cc([C@@H]2c3cc4c(cc3[C@@H](O[C@@H]3O[C@@H]5CO[C@@H](C)O[C@H]5[C@H](OC=O)[C@H]3OC=O)[C@H]3COC(=O)[C@H]23)OCO4)cc(OC)c1O` [Example 6, 2",3"-di-0-formyl etoposide], the IC50 with B16-F10 murine melanoma amounted to 2 µg/mL (≈ 3.1 µM); in test [1], 0.84 µg/mL (≈ 1.3 µM). In addition, in the test on P388 leukemia (setting [2]), the “Number of survivors/tested on day 50” value is reported as 3/4. Moreover, in the test on P388 leukemia (setting [5]), the response vs control in vivo at 120 mg/kg is above 500%.

As for `COc1cc([C@@H]2c3cc4c(cc3[C@@H](O[C@@H]3O[C@@H]5CO[C@@H](C)O[C@H]5[C@H](OC(C)=O)[C@H]3O)[C@H]3COC(=O)[C@H]23)OCO4)cc(OC)c1O` [Example 4, 3"-0-acetyl-etoposide], the IC50 in the test with B16-F10 murine melanoma stood at 1.4 µg/mL (≈ 2.22 µM). In the test on P388 leukemia (setting [4]), the response vs control in vivo at 30 mg/kg came out at 210%.

Molecule `COc1cc([C@@H]2c3cc4c(cc3[C@@H](O[C@@H]3O[C@@H]5CO[C@@H](C)O[C@H]5[C@H](O)[C@H]3OC(=O)c3ccccc3)[C@H]3COC(=O)[C@H]23)OCO4)cc(OC)c1O` [Example 8, 2"-0-benzoyletoposide] had an IC50 in the test with B16-F10 murine melanoma of 0.92 µg/mL (≈ 1.33 µM). Further, in the test on P388 leukemia (setting [5]), the response vs control in vivo at 120 mg/kg was 145%.

`COc1cc([C@@H]2c3cc4c(cc3[C@@H](O[C@@H]3O[C@@H]5CO[C@@H](C)O[C@H]5[C@H](OC(C)=O)[C@H]3OC(C)=O)[C@H]3COC(=O)[C@H]23)OCO4)cc(OC)c1O` [Example 1, 2",3"-di-0-acetyl etoposide]: the IC50 is 1.3 µg/mL (≈ 1.93 µM) in the test with B16-F10 murine melanoma and below 0.8 µg/mL in test [1]. Besides, in the test with P388 leukemia (setting [4]), the response vs control in vivo at 30 mg/kg stood at 165%.

`COc1cc([C@@H]2c3cc4c(cc3[C@@H](O[C@@H]3O[C@@H]5CO[C@@H](C)O[C@H]5[C@H](OC(=O)c5ccccc5)[C@H]3O)[C@H]3COC(=O)[C@H]23)OCO4)cc(OC)c1O` [Example 9, 3"-0-Benzoyletoposide]: the IC50 came out at 0.17 µg/mL (≈ 0.245 µM) in the test with B16-F10 murine melanoma and 0.83 µg/mL (≈ 1.2 µM) in test [1]. In addition, the “Number of survivors/tested on day 50” value in the test on P388 leukemia (60 mg/kg/day, i.p. single dose on day 1, CDF1 mice) is listed as 1/4. In addition, the response vs control in vivo at 60 mg/kg in the test on P388 leukemia (Mus musculus, P388, ip, 1200 h, 60 mg/kg/day, i.p. single dose on day 1, maximum % T/C at dose giving maximum effect, CDF1 mice, 50 days, read-out: % T/C MST) came to 420%.

Broadly, the IC50 is the concentration needed to halve the response being measured. The low end stands for inhibition by little substance, the high end for a need for much substance.

(Values after US5036055A, “Acylated derivatives of etoposide” (Bristol-Myers Company, priority 1989, dated 1991).)
